The target in experiment [1] is T1, human 5-HT1A receptor (Homo sapiens, UniProt P08908).
T1 construct: expressed in transfected cells
T1 sequence (P08908 1-422): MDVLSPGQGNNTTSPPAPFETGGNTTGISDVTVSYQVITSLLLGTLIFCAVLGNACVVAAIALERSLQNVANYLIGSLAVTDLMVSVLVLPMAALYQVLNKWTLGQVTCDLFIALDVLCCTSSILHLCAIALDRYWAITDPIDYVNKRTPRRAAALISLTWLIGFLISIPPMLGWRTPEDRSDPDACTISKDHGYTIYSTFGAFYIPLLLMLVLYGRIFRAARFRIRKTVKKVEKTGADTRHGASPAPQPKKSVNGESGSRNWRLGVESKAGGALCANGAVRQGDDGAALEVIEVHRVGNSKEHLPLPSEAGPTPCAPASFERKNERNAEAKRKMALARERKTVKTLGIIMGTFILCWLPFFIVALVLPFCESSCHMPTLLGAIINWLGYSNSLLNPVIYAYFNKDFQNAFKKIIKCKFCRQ
The experiment in a line: GPCR radioligand binding assay, [3H]-8-OH-DPAT displacement, HEK293 membranes. As to conditions: for 5-HT1A % Inhibition by plate position: 10 µM; for %inh 5-HT1A average: average of exp_1 and exp_2; for %inh 5-HT1A exp_1: replicate exp_1; for %inh 5-HT1A exp_2: replicate exp_2; for %inh 5-HT1A corrected*: average, values below 0 and above 100% were set as 0 and 100.

For experiment [2], the target named is T2, human 5-HT6 receptor (Homo sapiens, UniProt P50406).
T2 construct: expressed in transfected cells
The experiment in a line: GPCR radioligand binding assay, [3H]-LSD displacement, HEK293 membranes. As to conditions: for 5-HT6 % Inhibition by plate position: 10 µM; for %inh 5-HT6 average: average of exp_1 and exp_2; for %inh 5-HT6 corrected*: average, values below 0 and above 100% were set as 0 and 100; for %inh 5-HT6 exp_1: replicate exp_1; for %inh 5-HT6 exp_2: replicate exp_2.

Experiment [3] addresses T3, human 5-HT7b receptor (Homo sapiens, UniProt P34969).
T3 construct: expressed in transfected cells
Description: GPCR radioligand binding assay, [3H]-5-CT displacement, HEK293 membranes. The conditions noted are these: for 5-HT7 % Inhibition by plate position: 10 µM; for %inh 5-HT7 exp_1: replicate exp_1; for %inh 5-HT7 exp_2: replicate exp_2; for %inh 5-HT7 average: average of exp_1 and exp_2.

Eleven compounds from PMC8159961, “Exploring protein hotspots by optimized fragment pharmacophores” (Nature Communications, 2021) can be followed below.

T3 sequence (P34969 1-432): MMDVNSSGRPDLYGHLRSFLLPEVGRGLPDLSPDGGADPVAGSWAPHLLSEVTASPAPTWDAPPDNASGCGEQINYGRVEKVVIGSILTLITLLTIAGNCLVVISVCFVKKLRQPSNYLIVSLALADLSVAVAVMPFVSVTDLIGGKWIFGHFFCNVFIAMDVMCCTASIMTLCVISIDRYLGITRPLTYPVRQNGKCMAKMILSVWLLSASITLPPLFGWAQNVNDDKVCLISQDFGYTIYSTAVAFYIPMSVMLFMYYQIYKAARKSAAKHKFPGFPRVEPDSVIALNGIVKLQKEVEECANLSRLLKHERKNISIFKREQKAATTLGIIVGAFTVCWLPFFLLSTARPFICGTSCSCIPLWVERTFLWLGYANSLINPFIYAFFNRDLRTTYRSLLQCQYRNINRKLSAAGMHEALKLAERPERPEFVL
T2 sequence (P50406 whole entry): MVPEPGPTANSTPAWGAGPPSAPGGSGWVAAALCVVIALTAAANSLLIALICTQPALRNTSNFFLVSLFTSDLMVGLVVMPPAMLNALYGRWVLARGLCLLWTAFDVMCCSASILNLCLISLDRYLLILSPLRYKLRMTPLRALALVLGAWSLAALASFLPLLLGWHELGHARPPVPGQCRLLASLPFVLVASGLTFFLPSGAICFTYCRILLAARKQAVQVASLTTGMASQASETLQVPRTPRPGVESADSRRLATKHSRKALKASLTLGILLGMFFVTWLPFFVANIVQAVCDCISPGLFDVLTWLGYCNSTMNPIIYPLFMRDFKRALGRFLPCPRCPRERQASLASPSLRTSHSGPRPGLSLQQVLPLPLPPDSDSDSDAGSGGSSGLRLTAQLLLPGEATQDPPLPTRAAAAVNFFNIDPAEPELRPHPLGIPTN

Take `N[C@H]1c2ccccc2C[C@H]1CO` [B5]: in experiment [1], the “5-HT1A % Inhibition by plate position” value is recorded as 0%, the “%inh 5-HT1A average” value is reported as -0.612%, the “%inh 5-HT1A exp_1” value is on record as -19% and the “%inh 5-HT1A exp_2” value is reported as 18%. Also, in experiment [2], the “5-HT6 % Inhibition by plate position” value is recorded as 25%, the “%inh 5-HT6 average” value was found to be 25%, the “%inh 5-HT6 corrected*” value was determined as 25% and the “%inh 5-HT6 exp_1” value was 25%. In experiment [2], the “%inh 5-HT6 exp_2” value was determined as 25%. Besides, in experiment [3], the “5-HT7 % Inhibition by plate position” value stood at 6%, the “%inh 5-HT7 exp_1” value is recorded as 14% and the “%inh 5-HT7 exp_2” value is reported as -1%.
`Fc1ccc2c(C3CCNCC3)c[nH]c2c1` [H4]: in experiment [1], the “%inh 5-HT1A average” value was found to be 81%, the “%inh 5-HT1A corrected*” value is on record as 81%, the “%inh 5-HT1A exp_1” value was found to be 87% and the “%inh 5-HT1A exp_2” value was 75%. Also, in experiment [2], the “5-HT6 % Inhibition by plate position” value came to 90%, the “%inh 5-HT6 average” value is on record as 90%, the “%inh 5-HT6 corrected*” value came to 90% and the “%inh 5-HT6 exp_1” value is listed as 81%. Besides, the “%inh 5-HT6 exp_2” value in experiment [2] worked out at 98%. In experiment [3], the “5-HT7 % Inhibition by plate position” value was 78%, the “%inh 5-HT7 exp_1” value is listed as 78% and the “%inh 5-HT7 exp_2” value was determined as 78%.
As for `N#CCCN1CCc2ccccc21` [F4], in experiment [1], the “5-HT1A % Inhibition by plate position” value is on record as 0%, the “%inh 5-HT1A average” value is recorded as -7%, the “%inh 5-HT1A exp_1” value was -1.29% and the “%inh 5-HT1A exp_2” value is recorded as -12%. Further, in experiment [2], the “5-HT6 % Inhibition by plate position” value was 23%, the “%inh 5-HT6 average” value was 23%, the “%inh 5-HT6 corrected*” value was determined as 23% and the “%inh 5-HT6 exp_1” value was determined as 26%. Also, in experiment [2], the “%inh 5-HT6 exp_2” value is given as 20%. In experiment [3], the “5-HT7 % Inhibition by plate position” value was found to be 3%, the “%inh 5-HT7 exp_1” value was found to be 1.81% and the “%inh 5-HT7 exp_2” value is 4.42%.
Turning to `O=C(O)C1CCCN(C(=O)N2CCCC2)C1` (centres unmarked) [G6], in experiment [1], the “%inh 5-HT1A average” value is 5%, the “%inh 5-HT1A corrected*” value worked out at 5%, the “%inh 5-HT1A exp_1” value turned out to be 1% and the “%inh 5-HT1A exp_2” value turned out to be 9%. In addition, in experiment [2], the “5-HT6 % Inhibition by plate position” value was determined as 27%, the “%inh 5-HT6 average” value was found to be 27%, the “%inh 5-HT6 corrected*” value turned out to be 27% and the “%inh 5-HT6 exp_1” value came out at 29%. In addition, the “%inh 5-HT6 exp_2” value in experiment [2] is reported as 25%. Further, in experiment [3], the “5-HT7 % Inhibition by plate position” value came out at 8.53%, the “%inh 5-HT7 exp_1” value was 10% and the “%inh 5-HT7 exp_2” value was found to be 7%.
On to `O=C1CCC(=O)N(c2ccccc2)N1` [H7], for which, in experiment [1], the “%inh 5-HT1A average” value stood at 6%, the “%inh 5-HT1A corrected*” value is listed as 6%, the “%inh 5-HT1A exp_1” value is recorded as 7% and the “%inh 5-HT1A exp_2” value was 5.53%. Further, in experiment [2], the “5-HT6 % Inhibition by plate position” value is recorded as 22%, the “%inh 5-HT6 average” value is on record as 22%, the “%inh 5-HT6 corrected*” value worked out at 22% and the “%inh 5-HT6 exp_1” value was 24%. Also, in experiment [2], the “%inh 5-HT6 exp_2” value is on record as 20%. In experiment [3], the “5-HT7 % Inhibition by plate position” value is on record as 24%, the “%inh 5-HT7 exp_1” value was determined as 27% and the “%inh 5-HT7 exp_2” value came out at 21%.
In the case of `N#Cc1ccc(C(=O)N2CCOCC2)cc1` [E10], in experiment [1], the “5-HT1A % Inhibition by plate position” value is 0%, the “%inh 5-HT1A average” value is on record as -13%, the “%inh 5-HT1A exp_1” value is reported as -3% and the “%inh 5-HT1A exp_2” value is reported as -23%. Also, in experiment [2], the “5-HT6 % Inhibition by plate position” value is 37%, the “%inh 5-HT6 average” value is reported as 37%, the “%inh 5-HT6 corrected*” value stood at 37% and the “%inh 5-HT6 exp_1” value came out at 33%. The “%inh 5-HT6 exp_2” value in experiment [2] worked out at 41%. Also, in experiment [3], the “5-HT7 % Inhibition by plate position” value came out at 9%, the “%inh 5-HT7 exp_1” value amounted to 10% and the “%inh 5-HT7 exp_2” value is 7%.
As for `O=C(c1ccccc1)N1CCC(CO)CC1` [H9], in experiment [1], the “%inh 5-HT1A average” value is 11%, the “%inh 5-HT1A corrected*” value came out at 11%, the “%inh 5-HT1A exp_1” value is on record as 15% and the “%inh 5-HT1A exp_2” value was 7%. In experiment [2], the “5-HT6 % Inhibition by plate position” value stood at 32%, the “%inh 5-HT6 average” value was 32%, the “%inh 5-HT6 corrected*” value is 32% and the “%inh 5-HT6 exp_1” value is 29%. The “%inh 5-HT6 exp_2” value in experiment [2] stood at 36%. In addition, in experiment [3], the “5-HT7 % Inhibition by plate position” value came out at 12%, the “%inh 5-HT7 exp_1” value turned out to be 11% and the “%inh 5-HT7 exp_2” value amounted to 13%.
Regarding `CN1CC(=O)NC1=O` [B10], in experiment [1], the “5-HT1A % Inhibition by plate position” value amounted to 0%, the “%inh 5-HT1A average” value is listed as -4.34%, the “%inh 5-HT1A exp_1” value turned out to be 4% and the “%inh 5-HT1A exp_2” value was -13%. Also, in experiment [2], the “5-HT6 % Inhibition by plate position” value amounted to 35%, the “%inh 5-HT6 average” value is on record as 35%, the “%inh 5-HT6 corrected*” value is given as 35% and the “%inh 5-HT6 exp_1” value amounted to 31%. In addition, in experiment [2], the “%inh 5-HT6 exp_2” value worked out at 40%. Moreover, in experiment [3], the “5-HT7 % Inhibition by plate position” value came out at 0%, the “%inh 5-HT7 average” value is given as -7.6%, the “%inh 5-HT7 exp_1” value is reported as -15% and the “%inh 5-HT7 exp_2” value is reported as 0%.
Turning to `O=C1NC2(CCCC2)Nc2ccccc21` [C9], in experiment [1], the “5-HT1A % Inhibition by plate position” value is reported as 0%, the “%inh 5-HT1A average” value was -0.0168%, the “%inh 5-HT1A exp_1” value worked out at 4.43% and the “%inh 5-HT1A exp_2” value is reported as -4.46%. In experiment [2], the “5-HT6 % Inhibition by plate position” value came out at 44%, the “%inh 5-HT6 average” value stood at 44%, the “%inh 5-HT6 corrected*” value came out at 44% and the “%inh 5-HT6 exp_1” value was determined as 46%. In addition, the “%inh 5-HT6 exp_2” value in experiment [2] came to 41%. In experiment [3], the “5-HT7 % Inhibition by plate position” value was found to be 5%, the “%inh 5-HT7 exp_1” value is -2.47% and the “%inh 5-HT7 exp_2” value is reported as 13%.
Regarding `CN(C)c1cc(CN)ccn1` [G3], in experiment [1], the “%inh 5-HT1A average” value worked out at 11%, the “%inh 5-HT1A corrected*” value is recorded as 11%, the “%inh 5-HT1A exp_1” value came to 13% and the “%inh 5-HT1A exp_2” value was 10%. In addition, in experiment [2], the “5-HT6 % Inhibition by plate position” value was determined as 16%, the “%inh 5-HT6 average” value came out at 16%, the “%inh 5-HT6 corrected*” value is recorded as 16% and the “%inh 5-HT6 exp_1” value is recorded as 16%. Besides, the “%inh 5-HT6 exp_2” value in experiment [2] is 16%. Besides, in experiment [3], the “5-HT7 % Inhibition by plate position” value came to 0%, the “%inh 5-HT7 average” value is on record as -18%, the “%inh 5-HT7 exp_1” value is -1.11% and the “%inh 5-HT7 exp_2” value is -35%.
With `Cc1cc(N)no1` [B11], in experiment [1], the “5-HT1A % Inhibition by plate position” value is recorded as 0%, the “%inh 5-HT1A average” value is listed as -21%, the “%inh 5-HT1A exp_1” value is reported as -18% and the “%inh 5-HT1A exp_2” value was -24%. Also, in experiment [2], the “5-HT6 % Inhibition by plate position” value is 37%, the “%inh 5-HT6 average” value is given as 37%, the “%inh 5-HT6 corrected*” value is reported as 37% and the “%inh 5-HT6 exp_1” value is given as 40%. The “%inh 5-HT6 exp_2” value in experiment [2] was found to be 34%. Besides, in experiment [3], the “5-HT7 % Inhibition by plate position” value came to 1.49%, the “%inh 5-HT7 exp_1” value was -8% and the “%inh 5-HT7 exp_2” value is 11%.
